Results published in publication PMC2752819 (Assay and drug development technologies, 2008).
Where two headings read alike, the source gives them in different places.

Tests used:
MKP-1 = target: T1, MKP-1 (Homo sapiens, UniProt P28562); assay: biochemical
T1 sequence (P28562 1-367): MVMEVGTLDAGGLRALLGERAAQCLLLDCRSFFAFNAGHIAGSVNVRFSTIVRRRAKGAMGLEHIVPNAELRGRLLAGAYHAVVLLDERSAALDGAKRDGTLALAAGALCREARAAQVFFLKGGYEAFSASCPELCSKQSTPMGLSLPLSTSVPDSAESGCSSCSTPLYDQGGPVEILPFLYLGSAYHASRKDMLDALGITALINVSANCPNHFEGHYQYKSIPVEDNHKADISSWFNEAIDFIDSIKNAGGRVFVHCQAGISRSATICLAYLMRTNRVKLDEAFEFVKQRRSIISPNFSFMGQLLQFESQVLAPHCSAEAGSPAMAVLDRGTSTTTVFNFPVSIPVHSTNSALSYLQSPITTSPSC

[1] = cited from earlier work
[2] = MKP-1 + 1 mM DTT + catalase IC50, 1 mM DTT + 100 U of catalase
[3] = MKP-1 + 25 mM DTT IC50, 25 mM DTT
[4] = read-out: MKP-1 + 1 mM DTT % inhibition at 50 μM
[5] = read-out: MKP-1 + 1 mM DTT + catalase % inhibition at 50 μM
[6] = read-out: MKP-1 + 25 mM DTT % inhibition at 50 μM

CCn1nc(-c2cccs2)nc2c(=O)n(C)c(=O)nc1-2 [compound 850758, 1-ethyl-6-methyl-3-thiophen-2-ylpyrimido[5,6-e][1,2,4]triazine-5,7-dione]
IC50 (MKP-1; [2]): > 50 µM | IC50 (MKP-1; [3]): 4.43 µM | inhibition at 50 µM (MKP-1; [4]): 94.4% | inhibition at 50 µM (MKP-1; [5]): -92.2% | inhibition at 50 µM (MKP-1; [6]): 98.2%

Cn1ncnc2c(=O)n(C)c(=O)nc1-2 [compound 4251194, 1,6-dimethylpyrimido[5,6-e][1,2,4]triazine-5,7-dione]
IC50 (MKP-1; [2]): > 50 µM | IC50 (MKP-1; [3]): 5.68 µM | inhibition at 50 µM (MKP-1; [4]): 94.4% | inhibition at 50 µM (MKP-1; [5]): -27.2% | inhibition at 50 µM (MKP-1; [6]): 98%

CCn1nc(-c2ccccc2)nc2c(=O)n(C)c(=O)nc1-2 [compound 845167, 1-ethyl-6-methyl-3-phenylpyrimido[5,6-e][1,2,4]triazine-5,7-dione]
IC50 (MKP-1; [2]): > 50 µM | IC50 (MKP-1; [3]): 4.9 µM | inhibition at 50 µM (MKP-1; [4]): 95.6% | inhibition at 50 µM (MKP-1; [5]): -66.3% | inhibition at 50 µM (MKP-1; [6]): 96.2%

O=C1C(=O)c2ccccc2-c2ccccc21 [9,10-phenanthrenedione]
H2O2 generation in the presence of DTT [1]: generate significant amounts of H2O2

CCCCn1c(NC(=O)c2ccccc2)c(C#N)c2nc3ccccc3nc21 [compound 3712327, N-(1-butyl-3-cyanopyrrolo[5,4-b]quinoxalin-2-yl)benzamide]
IC50 (MKP-1; [3]): > 50 µM | inhibition at 50 µM (MKP-1; [4]): 79.9% | inhibition at 50 µM (MKP-1; [5]): 69.9% | inhibition at 50 µM (MKP-1; [6]): -5.25%

N#Cc1c(N)sc(=S)c2c1CCN(Cc1ccccc1)C2 [compound 845964, 3-amino-7-(phenylmethyl)-1-sulfanylidene-6,8-dihydro-5H-thiopyrano[5,4-c]pyridine-4-carbonitrile]
IC50 (MKP-1; [2]): > 50 µM | IC50 (MKP-1; [3]): > 50 µM | inhibition at 50 µM (MKP-1; [4]): 95.2% | inhibition at 50 µM (MKP-1; [5]): 47.7% | inhibition at 50 µM (MKP-1; [6]): 35.7%
